Assay results as given in patent US6486166B1, “Suppression of cyclin kinase 2 activity for prevention and treatment of DNA viral infections” (Board of Regents, The University of Texas, priority 1997, dated 2002).
“Also recorded” adds a separate entry of the source.

What was measured:
non-infected LU cells [1] = settings: human, 15 μM
non-infected LU cells [2] = assay: effects on non-infected LU cells (morphology, flow cytometry, BrdU incorporation); settings: 15 μM for 96 hr
HCMV [3] = assay: HCMV DNA abundance in infected LU cells by slot blot hybridization; format: cell-based, Human cytomegalovirus strain AD169; settings: density-arrested LU cells, 72 hr post-infection
HCMV-infected LU cells = assay: hematoxylin and eosin staining of HCMV-infected LU cells; settings: 15 μM; 96 hr after infection
[4] = tolerated dose in animals; format: in vivo; settings: printed 'tolerated by rate'
Source text: The preferred dosage of inhibitor of cyclin E/Cdk2 activity in a parenteral administration will vary, depending upon the extent of the virus infection, the severity of the symptoms associated with the infection and patient age, weight and medical history. The number of administrations of the parenteral composition will also vary according to the response of the individual patient to the treatment. In one exemplary application. the dosage of inhibitor of cyclin E/Cdk2 activity would vary with the type of disease and the route of administration. Further studies with animal models of infection will completely define projected doses. […] Weaker Cdk2 inhibitors will be needed at higher concentrations, and stronger, at lower.

HCMV [5] = assay: infectious HCMV yield by plaque assay; format: cell-based, Human cytomegalovirus strain AD169
human lung fibroblasts = settings: 100 μg/ml (0.75 mM); cited from earlier work
[6] = tested on: HCMV-infected subconfluent LU cells; assay: cell cycle distribution (DNA content by flow cytometry) after HCMV infection of subconfluent LU cells with PAA; format: cell-based, human; settings: for Percent Cells in phase G0/G1 / Percent Cells in phase G2/M / Percent Cells in phase S: HCMV 5 PFU/cell + PAA 100 μg/ml

SMILES: Cn1cnc2c(NCc3ccccc3)nc(NCCO)nc21 [olomoucine]
- cells able to incorporate bromodeoxyuridine (BrdU) after removal of the inhibitor (non-infected LU cells [1]): more than 70%

SMILES: CC[C@H](CO)Nc1nc(NCc2ccccc2)c2ncn(C(C)C)c2n1 [roscovitine]
- morphological changes of non-infected LU cells (non-infected LU cells [2]): no morphological changes; also recorded: did not present with any obvious morphological changes
- cell cycle state of non-infected cells (non-infected LU cells [2]; flow cytometry): arrested in G0/G1 or G2/M phase
- HCMV DNA abundance reduced (HCMV [3]; 1 μM): ~50%
- viral DNA abundance reduced (HCMV [3]; 10 μM): > 90%
- morphology of HCMV-infected cells (HCMV-infected LU cells): clearly dying or dead
- tolerated dose [4]: 3 µg/kg
- infectious HCMV yields reduced (HCMV [5]; 2.5 μM, 96 hr post-infection): > 90%
- inhibition at 10 µM (HCMV [5]; Human betaherpesvirus 5, 96 h, read-out: inhibition of infectious HCMV yields): > 99.9%

SMILES: O=C(O)CP(=O)(O)O [PAA, phosphonoacetic acid]
- effect on viral DNA replication (human lung fibroblasts): blocks viral DNA replication
- Percent Cells in phase G0/G1 ([6]; 0 hours after treatment): 93.3 (1.2) percent
- Percent Cells in phase G2/M ([6]; 0 hours after treatment): 5.1 (1.0) percent
- Percent Cells in phase S ([6]; 0 hours after treatment): 1.6 (0.2) percent
- Percent Cells in phase G0/G1 ([6]; 24 hours after treatment): 97.2 (0.4) percent
- Percent Cells in phase G2/M ([6]; 24 hours after treatment): 1.9 (0.3) percent
- Percent Cells in phase S ([6]; 24 hours after treatment): 0.9 (0.1) percent
- Percent Cells in phase G0/G1 ([6]; 48 hours after treatment): 97.1 (0.8) percent
- Percent Cells in phase G2/M ([6]; 48 hours after treatment): 1.3 (0.4) percent
- Percent Cells in phase S ([6]; 48 hours after treatment): 1.5 (0.4) percent
- Percent Cells in phase G0/G1 ([6]; 72 hours after treatment): 97.2 (0.3) percent
- Percent Cells in phase G2/M ([6]; 72 hours after treatment): 0.9 (0.1) percent
- Percent Cells in phase S ([6]; 72 hours after treatment): 1.9 (0.3) percent
- increase in DNA content after HCMV infection ([6]; subconfluent LU cells infected in the presence of PAA): no detectable increase in DNA content
